Calls of active or inactive are those of the source. The rule behind the calls is not given here.
Legend:
[1] = test system: HeLa; test: Cell cycle arrest in TNF-alpha-stimulated human HeLa cells transfected with NFkappaB-Luc assessed as accumulation at diploid stage at 20 uM after 8 hrs by using propidium iodide staining by FACS analysis; type: functional
[2] = test system: HeLa; test: Cell cycle arrest in TNF-alpha-stimulated human HeLa cells transfected with NFkappaB-Luc assessed as accumulation at total S phase at 0.5 uM after 8 hrs by using propidium iodide staining by FACS analysis; type: functional
[3] = test system: HeLa; test: Effect on cell cycle arrest in TNF-alpha-stimulated human HeLa cells transfected with NFkappaB-Luc assessed as cell debris level at 0.5 uM after 8 hrs by using propidium iodide staining by FACS analysis; type: functional
[4] = test system: HeLa; test: Cell cycle arrest in TNF-alpha-stimulated human HeLa cells transfected with NFkappaB-Luc assessed as accumulation at diploid G1 phase at 0.1 uM after 8 hrs by using propidium iodide staining by FACS analysis; type: functional
[5] = test system: HeLa; test: Cell cycle arrest in TNF-alpha-stimulated human HeLa cells transfected with NFkappaB-Luc assessed as accumulation at diploid S phase at 0.05 uM after 8 hrs by using propidium iodide staining by FACS analysis; type: functional
[6] = test system: HeLa; test: Cell cycle arrest in TNF-alpha-stimulated human HeLa cells transfected with NFkappaB-Luc assessed as accumulation at diploid G2 phase at 10 uM after 8 hrs by using propidium iodide staining by FACS analysis; type: functional
[7] = test system: Blood; test: Antiinflammatory activity in human whole blood assessed as inhibition of IL-1-beta-stimulated IL6 production preincubated 2 hrs before IL1-beta challenge measured after 18 hrs by ELISA; type: functional, tissue-based
[8] = test system: HeLa; test: Effect on cell cycle arrest in TNF-alpha-stimulated human HeLa cells transfected with NFkappaB-Luc assessed as cell aggregate level at 10 uM after 8 hrs by using propidium iodide staining by FACS analysis; type: functional
[9] = test system: HeLa; test: Cell cycle arrest in TNF-alpha-stimulated human HeLa cells transfected with NFkappaB-Luc assessed as accumulation at G2/G1 phase at 1 uM after 8 hrs by using propidium iodide staining by FACS analysis; type: functional
[10] = test system: HeLa; test: Cell cycle arrest in TNF-alpha-stimulated human HeLa cells transfected with NFkappaB-Luc assessed as accumulation at diploid G2 phase at 20 uM after 8 hrs by using propidium iodide staining by FACS analysis; type: functional
[11] = test system: HeLa; test: Effect on cell cycle arrest in human HeLa cells transfected with NFkappaB-Luc assessed as cell aggregate level at 20 uM after 8 hrs by using propidium iodide staining by FACS analysis; type: functional
[12] = test system: HeLa; test: Effect on cell cycle arrest in TNF-alpha-stimulated human HeLa cells transfected with NFkappaB-Luc assessed as cell aggregate level at 5 uM after 8 hrs by using propidium iodide staining by FACS analysis; type: functional
[13] = test system: HeLa; test: Cell cycle arrest in TNF-alpha-stimulated human HeLa cells transfected with NFkappaB-Luc assessed as accumulation at total S phase at 5 uM after 8 hrs by using propidium iodide staining by FACS analysis; type: functional
[14] = test system: HeLa; test: Cell cycle arrest in TNF-alpha-stimulated human HeLa cells transfected with NFkappaB-Luc assessed as accumulation at total S phase at 20 uM after 8 hrs by using propidium iodide staining by FACS analysis; type: functional
[15] = test system: HeLa; test: Cell cycle arrest in TNF-alpha-stimulated human HeLa cells transfected with NFkappaB-Luc assessed as accumulation at total S phase at 0.05 uM after 8 hrs by using propidium iodide staining by FACS analysis; type: functional
[16] = Inhibition of NF-kappaB-mediated gene transcription expressed in TNF-alpha-stimulated human HeLa cells for 30 mins before TNFalpha challenge measured after 8 hrs by steady-glo luciferase reporter gene assay; type: cell-based
[17] = Cytotoxicity against IL-1-beta-stimulated human whole blood lymphocytes assessed as survival cell count in millions at 20 uM after 24 hrs by trypan blue staining-based hemocytometry
[18] = test system: HeLa; test: Effect on cell cycle arrest in TNF-alpha-stimulated human HeLa cells transfected with NFkappaB-Luc assessed as cell aggregate level at 0.05 uM after 8 hrs by using propidium iodide staining by FACS analysis; type: functional
[19] = test system: HeLa; test: Effect on cell cycle arrest in TNF-alpha-stimulated human HeLa cells transfected with NFkappaB-Luc assessed as cell debris level at 0.1 uM after 8 hrs by using propidium iodide staining by FACS analysis; type: functional
[20] = test system: HeLa; test: Cell cycle arrest in TNF-alpha-stimulated human HeLa cells transfected with NFkappaB-Luc assessed as accumulation at diploid S phase at 20 uM after 8 hrs by using propidium iodide staining by FACS analysis; type: functional
[21] = test system: HeLa; test: Stimulation of NF-kappaB-mediated gene transcription expressed in human HeLa cells for 30 mins before TNFalpha challenge measured after 8 hrs by steady-glo luciferase reporter gene assay; type: cell-based
[22] = test system: HeLa; test: Cell cycle arrest in TNF-alpha-stimulated human HeLa cells transfected with NFkappaB-Luc assessed as accumulation at total S phase at 1 uM after 8 hrs by using propidium iodide staining by FACS analysis; type: functional
[23] = test system: HeLa; test: Cell cycle arrest in TNF-alpha-stimulated human HeLa cells transfected with NFkappaB-Luc assessed as accumulation at diploid S phase at 0.5 uM after 8 hrs by using propidium iodide staining by FACS analysis; type: functional
[24] = test system: HeLa; test: Cell cycle arrest in TNF-alpha-stimulated human HeLa cells transfected with NFkappaB-Luc assessed as accumulation at diploid G1 phase at 0.05 uM after 8 hrs by using propidium iodide staining by FACS analysis; type: functional
[25] = test system: HeLa; test: Effect on cell cycle arrest in TNF-alpha-stimulated human HeLa cells transfected with NFkappaB-Luc assessed as total background cell aggregate and debris level at 20 uM after 8 hrs by using propidium iodide staining by FACS analysis; type: functional
[26] = test system: HeLa; test: Cell cycle arrest in TNF-alpha-stimulated human HeLa cells transfected with NFkappaB-Luc assessed as accumulation at diploid G1 phase at 20 uM after 8 hrs by using propidium iodide staining by FACS analysis; type: functional
[27] = test system: HeLa; test: Cell cycle arrest in TNF-alpha-stimulated human HeLa cells transfected with NFkappaB-Luc assessed as accumulation at G2/G1 phase at 0.05 uM after 8 hrs by using propidium iodide staining by FACS analysis; type: functional
[28] = test system: HeLa; test: Cell cycle arrest in TNF-alpha-stimulated human HeLa cells transfected with NFkappaB-Luc assessed as accumulation at diploid stage at 10 uM after 8 hrs by using propidium iodide staining by FACS analysis; type: functional
[29] = test system: HeLa; test: Cell cycle arrest in TNF-alpha-stimulated human HeLa cells transfected with NFkappaB-Luc assessed as accumulation at diploid stage at 0.1 uM after 8 hrs by using propidium iodide staining by FACS analysis; type: functional
[30] = test system: HeLa; test: Cell cycle arrest in TNF-alpha-stimulated human HeLa cells transfected with NFkappaB-Luc assessed as accumulation at G2/G1 phase at 10 uM after 8 hrs by using propidium iodide staining by FACS analysis; type: functional
[31] = test system: HeLa; test: Cell cycle arrest in TNF-alpha-stimulated human HeLa cells transfected with NFkappaB-Luc assessed as accumulation at diploid G2 phase at 0.05 uM after 8 hrs by using propidium iodide staining by FACS analysis; type: functional
[32] = test system: HeLa; test: Cell cycle arrest in TNF-alpha-stimulated human HeLa cells transfected with NFkappaB-Luc assessed as accumulation at G2/G1 phase at 5 uM after 8 hrs by using propidium iodide staining by FACS analysis; type: functional

CCOC(=O)[C@]1(c2ccccc2)N=C(c2ccccc2)N(Cc2ccccc2)[C@@H]1c1ccccc1 (racemic)
Activity [1]: 100%
Activity [2]: 22.52%
Activity [3]: 3.68%
Activity [4]: 64.5%
Activity [5]: 22.8%
Activity [6]: 15.01%
Activity [7]: Dose-dependent effect
IC50 ([7]; read-out: IC50): 800 nM
IC50 ([7]; read-out: Log IC50 (converted)): 794 nM
Activity [8]: 0%
Activity [9]: 1.91%
Activity [10]: 14.75%
Activity [11]: 0%
Activity [12]: 0%
Activity [13]: 19.8%
Activity [14]: 19.29%
Activity [15]: 22.8%
EC50 [16]: 2500 nM
Activity [17]: 0.98 mL⁻¹
Activity [18]: 0%
Activity [19]: 2%
Activity [20]: 19.29%
Activity [21]: inactive
Activity [22]: 22.9%
Activity [23]: 22.52%
Activity [24]: 64.3%
Activity [25]: 5.59%
Activity [26]: 65.96%
Activity [27]: 1.91%
Activity [28]: 100%
Activity [29]: 100%
Activity [30]: 1.91%
Activity [31]: 12.9%
Activity [32]: 1.91%
